# In the supplement of paper PMC10307832:
# Legend:
# Experiment in all cases: relative viability (nuclei count vs DMSO), 5 days (fraction); higher = more cells survive
# Zosuquidar + Phenformin = compound: O[C@@H](COc1cccc2ncccc12)CN1CCN([C@@H]2c3ccccc3[C@@H]3[C@H](c4ccccc42)C3(F)F)CC1 [Zosuquidar] + N=C(N)NC(=N)NCCc1ccccc1 [Phenformin] (partner 250 µM)
# Method in brief: (§1)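 The day after seeding in 1536-well plates, lung cancer cell lines were treated by pin tool with a single drug, or with a fixed anchor-drug dose together with five library-drug doses (not always all listed) in √10 steps. After 5 days, a combined fix-and-stain solution (final 0.05% Triton X-100, 1% formaldehyde, 1 ug/ml Hoechst) was added. Nuclei counted on 4× images gave relative viability as treated counts over vehicle counts, reported as the median of duplicate plates.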
# Kobe2602 + OSI-027 = compound: C1=CC(=CC=C1NC(=S)NNC2=C(C=C(C=C2[N+](=O)[O-])C(F)(F)F)[N+](=O)[O-])F [Kobe2602] + COc1cccc2cc(-c3nc([C@H]4CC[C@H](C(=O)O)CC4)n4ncnc(N)c34)[nH]c12 [OSI-027] (partner 0.5 µM)
# Method in brief: as §1
# Cabozantinib + AZD7762 = compound: COc1cc2nccc(Oc3ccc(NC(=O)C4(C(=O)Nc5ccc(F)cc5)CC4)cc3)c2cc1OC [Cabozantinib] + NC(=O)Nc1cc(-c2cccc(F)c2)sc1C(=O)N[C@H]1CCCNC1 [AZD7762] (partner 0.2 µM)
# Method in brief: as §1
# Zosuquidar + OSI-027 = compound: O[C@@H](COc1cccc2ncccc12)CN1CCN([C@@H]2c3ccccc3[C@@H]3[C@H](c4ccccc42)C3(F)F)CC1 [Zosuquidar] + COc1cccc2cc(-c3nc([C@H]4CC[C@H](C(=O)O)CC4)n4ncnc(N)c34)[nH]c12 [OSI-027] (partner 0.5 µM)
# Method in brief: as §1
Cell Line,relative viability (Zosuquidar + Phenformin; first compound 0.01 µM),relative viability (Zosuquidar + Phenformin; first compound 0.03162 µM),relative viability (Zosuquidar + Phenformin; first compound 0.1 µM),relative viability (Zosuquidar + Phenformin; first compound 0.3162 µM),relative viability (Zosuquidar + Phenformin; first compound 1 µM),relative viability (Kobe2602 + OSI-027; first compound 0.2 µM),relative viability (Kobe2602 + OSI-027; first compound 0.6325 µM),relative viability (Kobe2602 + OSI-027; first compound 2 µM),relative viability (Kobe2602 + OSI-027; first compound 6.325 µM),relative viability (Kobe2602 + OSI-027; first compound 20 µM),relative viability (Cabozantinib + AZD7762; first compound 0.02 µM),relative viability (Cabozantinib + AZD7762; first compound 0.06325 µM),relative viability (Cabozantinib + AZD7762; first compound 0.2 µM),relative viability (Cabozantinib + AZD7762; first compound 0.6325 µM),relative viability (Cabozantinib + AZD7762; first compound 2 µM),relative viability (Zosuquidar + OSI-027; first compound 0.01 µM),relative viability (Zosuquidar + OSI-027; first compound 0.03162 µM),relative viability (Zosuquidar + OSI-027; first compound 0.1 µM),relative viability (Zosuquidar + OSI-027; first compound 0.3162 µM),relative viability (Zosuquidar + OSI-027; first compound 1 µM)
HCC-15,0.44,0.441,0.436,0.497,0.504,0.629,0.723,0.616,0.676,0.637,1.22,1.27,1.13,1.26,1.19,0.653,0.64,0.568,0.779,0.725
LCLC-103H,0.306,0.314,0.255,0.356,0.331,0.466,0.539,0.492,0.448,0.497,0.762,0.87,0.811,0.813,0.721,0.474,0.469,0.402,0.478,0.528
NCI-H2405,0.406,0.348,0.344,0.46,0.388,0.609,0.616,0.619,0.727,0.719,0.687,0.918,0.769,0.68,0.655,0.67,0.656,0.503,0.713,0.631
NCI-H1915,0.377,0.386,0.347,0.38,0.37,0.596,0.71,0.612,0.656,0.643,0.769,0.721,0.725,0.804,0.678,0.642,0.624,0.529,0.637,0.599
NCI-H647,0.531,0.39,0.453,0.592,0.462,0.647,0.751,0.57,0.841,0.639,0.44,0.77,0.427,0.594,0.4,0.64,0.63,0.552,0.886,0.723
HCC-366,0.61,0.674,0.623,0.718,0.575,0.727,0.975,0.886,0.847,0.894,0.34,0.358,0.21,0.209,0.275,0.911,1.09,0.845,1.19,0.956
NCI-H2087,0.426,,0.363,0.545,0.492,0.695,0.544,0.501,0.574,0.652,1.19,1.44,1.18,1.35,1.35,0.607,,0.432,0.694,0.587
NCI-H522,0.654,0.606,1.07,0.682,0.62,0.856,0.687,0.737,0.636,0.672,0.704,0.767,0.819,0.999,0.865,0.714,0.58,0.756,0.898,0.857
HOP-62,0.7,0.637,0.688,0.719,0.684,0.829,0.992,0.826,0.854,0.844,0.629,0.798,0.633,0.441,0.428,0.768,0.833,0.817,0.865,0.906
NCI-H2126,0.544,0.542,,0.539,0.532,0.715,0.778,0.675,0.678,0.701,0.901,1.03,0.941,0.988,1.07,0.736,0.982,,0.684,0.787
NCI-H441,0.903,0.845,0.643,0.832,0.916,0.616,0.563,0.536,0.631,0.783,1.64,1.43,1.1,1.44,0.826,0.667,0.666,0.519,0.828,0.585
NCI-H2170,0.388,0.463,0.393,0.395,0.445,0.736,0.755,0.7,0.658,0.791,0.871,0.937,0.779,0.864,1.01,0.701,0.731,0.641,0.743,0.713
H3255,0.34,0.373,0.326,0.38,0.36,0.52,0.73,0.613,0.605,0.564,0.938,1.14,,0.911,0.923,0.639,0.532,0.451,0.624,0.565
EMC-BAC-2,0.523,0.541,0.517,0.602,0.537,0.365,0.512,0.381,0.413,0.421,0.95,1.26,1.11,1.13,1.13,0.365,0.365,0.373,0.435,0.376
SW 900,0.597,0.578,0.618,0.738,0.557,0.712,0.477,0.499,0.374,0.488,0.604,0.761,0.559,0.441,0.448,0.676,0.507,0.493,0.646,0.706
CAL-12T,0.634,0.629,0.554,0.576,0.582,0.647,0.583,0.572,0.636,0.557,0.714,0.682,0.641,0.651,0.567,0.715,0.867,0.478,0.951,0.562
